Laboratory results from patent US7795315B2, “N-(2-amino-phenyl)-amide derivatives” (Hoffman-La Roche Inc., priority 2008, dated 2010).

Tests used:
Format in all cases: cell-based
[1] = test system: HCT-116 colon cancer cells; experiment: Antiproliferative activity, growth inhibition (MTS/WST assay); conditions: Homo sapiens, 72 hour growth inhibition, read-out: GI50 HCT116
Protocol: The novel compounds of the present invention were tested for their ability to inhibit growth of various cancer cell lines (HeLa, MCF7, U2OS, HepG2, HL60, HCT-116) using in vitro growth inhibition assays described below.
Cells were seeded in 96-well culture plates (200 microliters/well at different seeding concentrations depending on cell type) and incubated overnight at 37 degrees Celsius in 5% CO2. After adding compound dilutions to the cells (DMSO concentration kept below 0.5%), the cells were incubated at 37 degrees Celsius in 5% CO2 for 72 hours. The effects on proliferation were determined by addition of MTS reagent (Promega) according to the manufacturer's instruction, followed by incubation for 2 hours at 37 degrees Celsius in 5% CO2, and finally recording the absorbance at 490 nm using an ELISA plate reader.
Similar to MTS assay except that the developer is the CCK-8 reagent (Dojindo) and the plate reader is set to 450 nm absorbance.
GI50 values against HCT-116 colon cancer cells for specific representative compounds can be found in Table 4.

[2] = test system: klf2 promoter-luciferase construct in A204 cells; experiment: klf2 reporter gene induction (p21 versus klf2 selectivity); conditions: SNDX-275 p21/klf2 ratio defined as 1.0; for p21/klf2 (RP3): relative selectivity compared with SNDX-275: 3 micromolar; for p21/klf2 (RP10): relative selectivity compared with SNDX-275: 10 micromolar
Protocol: (§1) The novel compounds of the present invention were tested for their ability to induce p21 gene expression using a reporter gene assay involving HeLa cells transfected with a p21 promoter-luciferase construct. The p21 promoter contained the Sp1/Sp3 binding site for HDAC but not the upstream p53 binding site. Briefly, the day before transfection, HeLa cells were seeded at 11,000 cells/well in a 96-well culture plate and incubated at 37 degrees Celsius in 5% CO2 overnight. For transfection, the medium was removed and replaced with 100 microliters/well transfection media previously prepared as follows: 5 microliters serum-free DMEM, 0.15 microliters Fugene 6 reagent, 40 ng p21-luc, 10 ng GFP were mixed gently and incubated at room temperature for 30 minutes; then 98 microliters DMEM (with 10% FBS, 1% penicillin and streptomycin) was added to the DNA:Fugene 6 reagent complex and mixed gently. After incubating the cells for 24 hours at 37 degrees Celsius in 5% CO2, fresh media and test compounds were added to the wells and the cells further incubated for 15 hours at 37 degrees Celsius in 5% CO2. Cells were lysed by adding 80 microliters/well of a cell culture lysis reagent (Promega). 50 microliters of each lysate was taken for GFP detection using an excitation wavelength of 486 nm and detection at 527 nm. 100 microliters Luciferase assay reagent (Promega) was then added to every 20 microliters cell lysate for luminometer detection. […] Induction activity for specific representative compounds can be found in Table 4.
The novel compounds of the present invention were tested for their ability to induce klf2 gene expression using a reporter gene assay involving A204 cells transfected with a klf2 promoter-luciferase construct. The klf2 promoter contained the MEF2 binding site for HDAC3/class IIa HDAC complex. Briefly, the day before transfection, A204 cells were seeded at 11,000 cells/well in a 96-well culture plate and incubated at 37 degrees Celsius in 5% CO2 overnight. For transfection, the medium was removed and replaced with 100 microliters/well transfection media previously prepared as follows: 5 microliters serum-free DMEM, 0.15 microliters Fugene 6 reagent, 40 ng klf2-luc, 10 ng GFP were mixed gently and incubated at room temperature for 30 minutes; then 98 microliters DMEM (with 10% FBS, 1% penicillin and streptomycin) was added to the DNA:Fugene 6 reagent complex and mixed gently. After incubating the cells for 24 hours at 37 degrees Celsius in 5% CO2, fresh media and test compounds were added to the wells and the cells further incubated for 15 hours at 37 degrees Celsius in 5% CO2. Finally, 10 ng/ml TNF-α was added and the cells further incubated for 4 hours. Cells were lysed by adding 80 microliters/well of a cell culture lysis reagent (Promega). 50 microliters of each lysate was taken for GFP detection using an excitation wavelength of 486 nm and detection at 527 nm. 100 microliters Luciferase assay reagent (Promega) was then added to every 20 microliters cell lysate for luminometer detection.

[3] = test system: p21 promoter-luciferase construct in HeLa cells; experiment: p21 reporter gene induction; conditions: 3 micromolar, 15 hours, relative to SNDX-275
Protocol: as §1

| SMILES | GI50 [1] [nM] | p21/klf2 (RP3): relative selectivity compared with SNDX-275 [2] | p21/klf2 (RP10): relative selectivity compared with SNDX-275 [2] | p21 (RP3): relative induction potency compared with SNDX-275 [3] [%] |
| --- | --- | --- | --- | --- |
| Nc1ccccc1NC(=O)/C=C/c1ccc(C(NCCN2CCCCC2)C(=O)Nc2ccc(OC(F)(F)F)cc2)cc1 (stereo not drawn) [Example 4-48, (E)-N-(2-Amino-phenyl)-3-{4-[(2-piperidin-1-yl-ethylamino)-(4-trifluoromethoxy-phenylcarbamoyl)-methyl]-phenyl}-acrylamide] | 1400 | 1.9 | 1.9 | 130 |
| Nc1ccccc1NC(=O)/C=C/c1ccc(C(NCCN2C[C@@H]3C[C@H]2CO3)C(=O)Nc2ccc(C(F)(F)F)cc2)cc1 (stereo partly drawn) [Example 4-12, (E)-N-(2-Amino-phenyl)-3-{4-[[(1S,4S)-2-(2-oxa-5-aza-bicyclo[2.2.1]hept-5-yl)-ethylamino]-(4-trifluoromethyl-phenylcarbamoyl)-methyl]-phenyl}-acrylamide] | 400 | 10.6 | 0.8 | 167 |
| Nc1ccccc1NC(=O)/C=C/c1ccc(C(NCCN2CCOCC2)C(=O)Nc2ccc(C3CC3)cc2)cc1 (stereo not drawn) [Example 4-47, (E)-N-(2-Amino-phenyl)-3-{4-[(4-cyclopropyl-phenylcarbamoyl)-(2-morpholin-4-yl-ethylamino)-methyl]-phenyl}-acrylamide] | 900 | 1.0 | 1.8 | 79 |
| Nc1ccccc1NC(=O)/C=C/c1ccc(C(NCCN2CCOCC2)C(=O)Nc2ccc(Cl)cc2)cc1 (stereo not drawn) [Example 30-33, (E)-N-(2-Amino-phenyl)-3-{4-[(4-chloro-phenylcarbamoyl)-(2-morpholin-4-yl-ethylamino)-methyl]-phenyl}-acrylamide] | 900 | 2.1 | 1.2 | 193 |
| Nc1ccccc1NC(=O)/C=C/c1ccc(C(NCCN2CCOCC2)C(=O)Nc2ccc(C(F)(F)F)c(F)c2)cc1 (stereo not drawn) [Example 4-36, (E)-N-(2-Amino-phenyl)-3-{4-[(3-fluoro-4-trifluoromethyl-phenylcarbamoyl)-(2-morpholin-4-yl-ethylamino)-methyl]-phenyl}-acrylamide] | 2000 | 0.7 | 3.1 | 43 |
| Nc1ccccc1NC(=O)/C=C/c1ccc(C(C(=O)Nc2ccc(C(F)(F)F)cc2)N2CCOCC2)cc1 (stereo not drawn) [Example 9-10, (E)-N-(2-Amino-phenyl)-3-{4-[morpholin-4-yl-(4-trifluoromethyl-phenylcarbamoyl)-methyl]-phenyl}-acrylamide] | 1100 | 1.0 | 1.6 | 80 |
| Nc1ccccc1NC(=O)/C=C/c1ccc(C(C(=O)Nc2ccc(C(F)(F)F)cc2)N2CCCCC2)cc1 (stereo not drawn) [Example 9-29, (E)-N-(2-Amino-phenyl)-3-{4-[piperidin-1-yl-(4-trifluoromethyl-phenylcarbamoyl)-methyl]-phenyl}-acrylamide] | 7100 | 0.3 | 0.5 | 10 |
| Nc1ccccc1NC(=O)/C=C/c1ccc(C(NCCCN2CCOCC2)C(=O)Nc2ccc(C3CC3)cc2)cc1 (stereo not drawn) [Example 4-41, (E)-N-(2-Amino-phenyl)-3-{4-[(4-cyclopropyl-phenylcarbamoyl)-(3-morpholin-4-yl-propylamino)-methyl]-phenyl}-acrylamide] | 1400 | 3.5 | 2.1 | 156 |
| Nc1ccccc1NC(=O)/C=C/c1ccc(C(NCCN2CCOCC2)C(=O)Nc2ccc(C(F)(F)F)c(Cl)c2)cc1 (stereo not drawn) [Example 4-29, (E)-N-(2-Amino-phenyl)-3-{4-[(3-chloro-4-trifluoromethyl-phenylcarbamoyl)-(2-morpholin-4-yl-ethylamino)-methyl]-phenyl}-acrylamide] | 2100 | 0.6 | 2.3 | 48 |
| Nc1ccccc1NC(=O)/C=C/c1ccc(C(NCCN2CCOCC2)C(=O)Nc2ccc(C(F)(F)F)cn2)cc1 (stereo not drawn) [Example 4-43, (E)-N-(2-Amino-phenyl)-3-{4-[(2-morpholin-4-yl-ethylamino)-(5-trifluoromethyl-pyridin-2-ylcarbamoyl)-methyl]-phenyl}-acrylamide] | 2200 | 0.9 | 2.1 | 89 |
| Nc1ccccc1NC(=O)/C=C/c1ccc(C(NCCC2CCOCC2)C(=O)Nc2ccc(C(F)(F)F)cc2)cc1 (stereo not drawn) [Example 9-18, (E)-N-(2-Amino-phenyl)-3-{4-[[2-(tetrahydro-pyran-4-yl)-ethylamino]-(4-trifluoromethyl-phenylcarbamoyl)-methyl]-phenyl}-acrylamide] | 1000 | 1.0 | 1.7 | 70 |
| Nc1ccccc1NC(=O)/C=C/c1ccc(C(C(=O)Nc2ccc(C(F)(F)F)cc2)N2CCCC2)cc1 (stereo not drawn) [Example 9-11, (E)-N-(2-Amino-phenyl)-3-{4-[pyrrolidin-1-yl-(4-trifluoromethyl-phenylcarbamoyl)-methyl]-phenyl}-acrylamide] | 900 | 1.1 | 2.7 | 97 |
| CC(C)(C)c1ccc(NC(=O)C(NCCO)c2ccc(/C=C/C(=O)Nc3ccccc3N)cc2)cc1 (stereo not drawn) [Example 4-68, (E)-N-(2-Amino-phenyl)-3-{4-[(4-tert-butyl-phenylcarbamoyl)-(2-hydroxy-ethylamino)-methyl]-phenyl}-acrylamide] | 3700 | 0.5 | 1.3 | 41 |
| CN(C)CCNC(C(=O)Nc1ccc(C(F)(F)F)cc1)c1ccc(/C=C/C(=O)Nc2ccccc2N)cc1 (stereo not drawn) [Example 4-1, (E)-N-(2-Amino-phenyl)-3-{4-[(2-dimethylamino-ethylamino)-(4-trifluoromethyl-phenylcarbamoyl)-methyl]-phenyl}-acrylamide] | 700 | 1.4 | 5.5 | 300 |
| CNC(C(=O)Nc1ccc(C(F)(F)F)cc1)c1ccc(/C=C/C(=O)Nc2ccccc2N)cc1 (stereo not drawn) [Example 9-17, (E)-N-(2-Amino-phenyl)-3-{4-[methylamino-(4-trifluoromethyl-phenylcarbamoyl)-methyl]-phenyl}-acrylamide] | 1900 | 1.3 | 1.9 | 84 |
